# Source: paper PMC9127750, “Structure-based design of CDC42 effector interaction inhibitors for the treatment of cancer” (Cell reports, 2022)
# Several values for one entry are separate records, joined by “and”; a condition that tells them apart may be missing. Identical values can stand only once.
# System: WM3248 melanoma cells, 486 antibodies
# Experiment: Reverse phase protein arrays (RPPA)
# Format: cell-based, Human
# Text: Pellets were snap frozen in liquid nitrogen and shipped to MD Anderson Cancer Center core RPPA facility for RPPA analysis (Table S5). Three biological replicates for each sample were generated.
# Nomenclatures on the RPPA heatmaps: name_of_antibody.species_of_antibody.status_of_antibody. V - antibody validated; C - validation of antibody in progress; Q - antibody nonspecific; E – under evaluation; antibodies raised in M - mouse, G - goat, R - rabbit, or T - rat.
# [1] = level 5 normalized to 0, mean of 3
# [2] = level 5 normalized to 0, single replicates
structure (smiles),measurement,setting,value
"CN(C)c1cccc(Nc2cc(-c3ccccc3)nc(C3CCNCC3)n2)c1 [ARN22089, N1,N1-dimethyl-N3-(6-phenyl-2-(piperidin-4-yl)pyrimidin-4-yl)benzene-1,3-diamine]",S6 phosphorylation at serine 235/236 and 240/244 (RPPA),"WM3248, 6 h, 10 and 20 μM",inhibit S6 phosphorylation
same,number of proteins with significantly influenced phosphorylation (RPPA),"WM3248, 6 h, 10 and/or 20 μM",10
same,number of proteins with significantly influenced abundance (RPPA),"WM3248, 6 h, 10 and/or 20 μM, 486 antibodies",38
same,TSC1.R.C Norm_5 Average,[1],1.102
same,TTF1.R.V Norm_5 Average,[1],1.049
same,TUFM.R.V Norm_5 Average,[1],0.868
same,Tuberin_pT1462.R.V Norm_5 Average,[1],0.977
same,Twist.M.C Norm_5 Average,[1],0.950
same,Tyro3.R.V Norm_5 Average,[1],1.005
same,U.Histone.H2B.R.C Norm_5 Average,[1],1.142
same,UBAC1.R.V Norm_5 Average,[1],0.993
same,UBQLN4.M.C Norm_5 Average,[1],1.016
same,ULK1_pS757.R.C Norm_5 Average,[1],1.079
same,UQCRC2.M.C Norm_5 Average,[1],0.979
same,UVRAG.R.C Norm_5 Average,[1],1.020
same,VASP.R.V Norm_5 Average,[1],0.994
same,VAV1.R.C Norm_5 Average,[1],1.019
same,VEGFR.2.R.V Norm_5 Average,[1],1.081
same,VEGFR.2_pY1175.R.C Norm_5 Average,[1],0.910
same,VHL.R.C Norm_5 Average,[1],0.932
same,Vinculin.M.V Norm_5 Average,[1],1.019
same,WIPI1.R.C Norm_5 Average,[1],1.058
same,WIPI2.R.C Norm_5 Average,[1],1.061
same,WTAP.R.V Norm_5 Average,[1],0.959
same,Wee1.R.C Norm_5 Average,[1],1.054
same,Wee1_pS642.R.C Norm_5 Average,[1],0.993
same,XBP.1.G.C Norm_5 Average,[1],0.977
same,XIAP.R.C Norm_5 Average,[1],1.035
same,XPA.M.V Norm_5 Average,[1],0.929
same,XPF.R.C Norm_5 Average,[1],0.943
same,XRCC1.R.C Norm_5 Average,[1],0.946
same,YAP.R.C Norm_5 Average,[1],0.953
same,YAP_pS127.R.V Norm_5 Average,[1],0.906
same,YB1_pS102.R.V Norm_5 Average,[1],0.961
same,YES1.R.V Norm_5 Average,[1],0.962
same,YTHDF2.R.V Norm_5 Average,[1],1.076
same,YTHDF3.R.C Norm_5 Average,[1],0.987
same,ZAP.70.R.V Norm_5 Average,[1],0.952
same,ZEB1.R.V Norm_5 Average,[1],0.892
same,TSC1.R.C Norm_5_1 to Norm_5_3,[2],1.060 and 1.024 and 1.221
same,TTF1.R.V Norm_5_1 to Norm_5_3,[2],1.035 and 1.145 and 0.966
same,TUFM.R.V Norm_5_1 to Norm_5_3,[2],0.845 and 0.669
same,Tuberin.R.V Norm_5_1 to Norm_5_3,[2],1.052 and 1.301
same,Tuberin_pT1462.R.V Norm_5_1 to Norm_5_3,[2],0.994 and 0.956 and 0.983
same,Twist.M.C Norm_5_1 to Norm_5_3,[2],0.898 and 0.964 and 0.990
same,Tyro3.R.V Norm_5_1 to Norm_5_3,[2],1.008 and 1.152 and 0.855
same,U.Histone.H2B.R.C Norm_5_1 to Norm_5_3,[2],1.497 and 1.118 and 0.811
same,UBAC1.R.V Norm_5_1 to Norm_5_3,[2],0.966 and 1.139 and 0.875
same,UBQLN4.M.C Norm_5_1 to Norm_5_3,[2],0.962 and 1.147
same,UGT1A.M.V Norm_5_1 to Norm_5_3,[2],0.962 and 0.965 and 0.979
same,ULK1_pS757.R.C Norm_5_1 to Norm_5_3,[2],0.993 and 1.063
same,UQCRC2.M.C Norm_5_1 to Norm_5_3,[2],0.997 and 1.139 and 0.800
same,UVRAG.R.C Norm_5_1 to Norm_5_3,[2],1.096 and 0.960 and 1.005
same,VASP.R.V Norm_5_1 to Norm_5_3,[2],1.053 and 0.992
same,VAV1.R.C Norm_5_1 to Norm_5_3,[2],1.027 and 0.961
same,VEGFR.2.R.V Norm_5_1 to Norm_5_3,[2],0.985 and 1.166
same,VEGFR.2_pY1175.R.C Norm_5_1 to Norm_5_3,[2],0.849 and 0.870 and 1.011
same,VHL.EPPK1.M.C Norm_5_1 to Norm_5_3,[2],0.542 and 1.028 and 0.909
same,VHL.R.C Norm_5_1 to Norm_5_3,[2],0.928 and 0.903 and 0.966
same,Vinculin.M.V Norm_5_1 to Norm_5_3,[2],0.942 and 1.027
same,WIPI1.R.C Norm_5_1 to Norm_5_3,[2],1.134 and 1.302 and 0.738
same,WIPI2.R.C Norm_5_1 to Norm_5_3,[2],1.104 and 0.916 and 1.163
same,WTAP.R.V Norm_5_1 to Norm_5_3,[2],0.932 and 0.904
same,Wee1.R.C Norm_5_1 to Norm_5_3,[2],0.867 and 1.101 and 1.195
same,Wee1_pS642.R.C Norm_5_1 to Norm_5_3,[2],0.917 and 0.940 and 1.121
same,XBP.1.G.C Norm_5_1 to Norm_5_3,[2],0.957 and 1.060 and 0.914
same,XIAP.R.C Norm_5_1 to Norm_5_3,[2],1.060 and 0.982 and 1.062
same,XPA.M.V Norm_5_1 to Norm_5_3,[2],0.895 and 0.876 and 1.017
same,XPF.R.C Norm_5_1 to Norm_5_3,[2],0.932 and 0.922 and 0.975
same,XRCC1.R.C Norm_5_1 to Norm_5_3,[2],0.894 and 1.030 and 0.916
same,YAP.R.C Norm_5_1 to Norm_5_3,[2],0.937 and 0.945 and 0.977
same,YAP_pS127.R.V Norm_5_1 to Norm_5_3,[2],0.985 and 0.903 and 0.830
same,YB1_pS102.R.V Norm_5_1 to Norm_5_3,[2],0.906
same,YES1.R.V Norm_5_1 to Norm_5_3,[2],0.963 and 1.014 and 0.910
same,YTHDF2.R.V Norm_5_1 to Norm_5_3,[2],1.138 and 1.217 and 0.872
same,YTHDF3.R.C Norm_5_1 to Norm_5_3,[2],1.049 and 0.875
same,ZAP.70.R.V Norm_5_1 to Norm_5_3,[2],0.889 and 1.054
same,ZEB1.R.V Norm_5_1 to Norm_5_3,[2],0.816 and 0.893 and 0.967
same,HLA.DQA1.R.V Norm_5 Average,level 5 vs 0,0.908
same,HLA.DR.DP.DQ.DX.R.C Norm_5 Average,level 5 vs 0,0.994
same,HSP27.M.C Norm_5 Average,level 5 vs 0,0.932
same,HSP27_pS82.R.V Norm_5 Average,level 5 vs 0,1.025
same,HSP60.R.V Norm_5 Average,level 5 vs 0,1.006
same,HSP70.R.C Norm_5 Average,level 5 vs 0,1.035
same,Hexokinase.I.R.C Norm_5 Average,level 5 vs 0,1.032
same,Hexokinase.II.R.V Norm_5 Average,level 5 vs 0,1.130
same,Hif.1αR.C Norm_5 Average,level 5 vs 0,1.202
same,Histone.H3.R.V Norm_5 Average,level 5 vs 0,1.065
same,Histone.H3_pS10.R.V Norm_5 Average,level 5 vs 0,0.786
same,IDO.R.C Norm_5 Average,level 5 vs 0,1.015
same,IGF1R_pY1135_Y1136.R.V Norm_5 Average,level 5 vs 0,1.003
same,IGFBP2.R.V Norm_5 Average,level 5 vs 0,1.029
same,IGFBP3.M.V Norm_5 Average,level 5 vs 0,0.953
same,IGFRb.R.C Norm_5 Average,level 5 vs 0,1.085
same,IL.6.R.C Norm_5 Average,level 5 vs 0,1.015
same,INPP4b.R.C Norm_5 Average,level 5 vs 0,1.023
same,IR.b.R.C Norm_5 Average,level 5 vs 0,1.051
same,IRF.1.R.V Norm_5 Average,level 5 vs 0,0.995
same,IRF.3.R.V Norm_5 Average,level 5 vs 0,0.937
same,IRS1.R.V Norm_5 Average,level 5 vs 0,1.023
same,IRS2.R.C Norm_5 Average,level 5 vs 0,0.992
same,JNK2.R.V Norm_5 Average,level 5 vs 0,1.065
same,JNK_pT183_Y185.R.C Norm_5 Average,level 5 vs 0,0.992
same,Jagged1.R.V Norm_5 Average,level 5 vs 0,0.984
same,Jak2.R.V Norm_5 Average,level 5 vs 0,1.003
same,KEAP1.R.V Norm_5 Average,level 5 vs 0,0.955
same,LAD1.R.V Norm_5 Average,level 5 vs 0,0.963
same,LC3A.B.R.C Norm_5 Average,level 5 vs 0,1.012
same,LCN2.R.V Norm_5 Average,level 5 vs 0,1.298
same,LDHA.R.C Norm_5 Average,level 5 vs 0,1.102
same,LRP6_pS1490.R.V Norm_5 Average,level 5 vs 0,1.046
same,Lasu1.R.V Norm_5 Average,level 5 vs 0,0.972
same,Lck.R.V Norm_5 Average,level 5 vs 0,1.010
same,Lyn.R.V Norm_5 Average,level 5 vs 0,0.844
same,MAPK_pT202_Y204.R.C Norm_5 Average,level 5 vs 0,0.869
same,MCT4.R.V Norm_5 Average,level 5 vs 0,1.048
same,MDM2_pS166.R.V Norm_5 Average,level 5 vs 0,1.023
same,MEK1.R.V Norm_5 Average,level 5 vs 0,1.023
same,MEK1_pS217_S221.R.V Norm_5 Average,level 5 vs 0,0.982
same,MERIT40.R.C Norm_5 Average,level 5 vs 0,0.989
same,METTL3.R.V Norm_5 Average,level 5 vs 0,0.986
same,MIF.R.C Norm_5 Average,level 5 vs 0,0.948
same,MIG6.R.V Norm_5 Average,level 5 vs 0,0.939
same,MITF.R.V Norm_5 Average,level 5 vs 0,1.020
same,MLH1.M.V Norm_5 Average,level 5 vs 0,0.926
same,MLKL.R.V Norm_5 Average,level 5 vs 0,0.945
same,MMP2.R.V Norm_5 Average,level 5 vs 0,0.946
same,MR1.M.C Norm_5 Average,level 5 vs 0,0.994
same,MRAP.R.C Norm_5 Average,level 5 vs 0,1.051
same,MSH2.R.C Norm_5 Average,level 5 vs 0,0.954
same,MSH6.R.C Norm_5 Average,level 5 vs 0,1.056
same,MSI2.R.C Norm_5 Average,level 5 vs 0,1.081
same,MTCO1.M.V Norm_5 Average,level 5 vs 0,1.081
same,MTSS1.M.C Norm_5 Average,level 5 vs 0,0.950
same,Mcl.1.R.V Norm_5 Average,level 5 vs 0,0.960
same,MelanA.R.C Norm_5 Average,level 5 vs 0,1.007
same,Melanoma.gp100.R.C Norm_5 Average,level 5 vs 0,1.060
same,Merlin.R.C Norm_5 Average,level 5 vs 0,1.018
same,Midkine.R.V Norm_5 Average,level 5 vs 0,0.932
same,Mitofusin.1.R.V Norm_5 Average,level 5 vs 0,1.025
same,Mnk1.R.V Norm_5 Average,level 5 vs 0,1.012
same,mTOR.R.V Norm_5 Average,level 5 vs 0,1.033
same,mTOR_pS2448.R.C Norm_5 Average,level 5 vs 0,1.080
same,HLA.DQA1.R.V Norm_5,"level 5 vs 0, replicates",0.839 and 1.026 and 0.858
same,HLA.DR.DP.DQ.DX.R.C Norm_5,"level 5 vs 0, replicates",0.915 and 1.122 and 0.946
same,HMHA1.R.V Norm_5,"level 5 vs 0, replicates",1.034 and 1.050 and 1.124
same,HNRNPK.R.V Norm_5,"level 5 vs 0, replicates",0.924 and 0.922 and 0.995
same,HSP27.M.C Norm_5,"level 5 vs 0, replicates",0.955 and 1.006 and 0.835
same,HSP27_pS82.R.V Norm_5,"level 5 vs 0, replicates",0.966 and 0.991 and 1.118
same,HSP60.R.V Norm_5,"level 5 vs 0, replicates",1.007 and 0.973
same,HSP70.R.C Norm_5,"level 5 vs 0, replicates",1.007 and 1.047 and 1.051
same,Hexokinase.I.R.C Norm_5,"level 5 vs 0, replicates",1.009 and 1.149
same,Hexokinase.II.R.V Norm_5,"level 5 vs 0, replicates",1.156 and 1.123 and 1.110
same,Hif.1αR.C Norm_5,"level 5 vs 0, replicates",1.356 and 1.081 and 1.170
same,Histone.H3.R.V Norm_5,"level 5 vs 0, replicates",1.165 and 1.542 and 0.488
same,Histone.H3_pS10.R.V Norm_5,"level 5 vs 0, replicates",0.733 and 1.032 and 0.592
same,IDO.R.C Norm_5,"level 5 vs 0, replicates",1.121 and 0.959 and 0.966
same,IGF1R_pY1135_Y1136.R.V Norm_5,"level 5 vs 0, replicates",0.933 and 1.035
same,IGFBP2.R.V Norm_5,"level 5 vs 0, replicates",0.940 and 1.033 and 1.113
same,IGFBP3.M.V Norm_5,"level 5 vs 0, replicates",0.833 and 0.934
same,IGFRb.R.C Norm_5,"level 5 vs 0, replicates",1.063 and 1.065 and 1.126
same,IL.6.R.C Norm_5,"level 5 vs 0, replicates",1.051 and 0.961 and 1.033
same,IMP3.R.C Norm_5,"level 5 vs 0, replicates",0.861 and 0.973 and 1.018
